Assay results from patent US20160022625A1, “TASHINONES AND THEIR DERIVATIVES: NOVEL EXCELLENT DRUGS FOR ALZHEIMER DISEASE” (priority 2013, published 2016).
Like-named read-outs stand apart in the source and are kept apart here.

Columns and labels:
Aβ1-42 [1] = biological target: T1, Aβ1-42 (Homo sapiens, UniProt P05067); experiment: ThT fluorescence assay of Aβ1-42 amyloid formation (inhibition assay); format: biochemical; settings: 20 μM Aβ1-42, 37° C.; for final ThT fluorescence intensity reduced by: Aβ:TS=1:2, 24 hour
T1 construct: Aβ1-42 peptide (≧95.5%) was all purchased from American Peptide Inc; purchased American Peptide Inc. (Sunnyvale, Calif.)
T1 sequence (P05067 672-713 limits assumed): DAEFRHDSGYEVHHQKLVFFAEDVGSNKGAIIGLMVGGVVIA
Description: (§1) To examine the inhibitory effect of TS1 and TS2 on Aβ aggregation, the kinetics and morphological changes of Aβ1-42 amyloid formation in the presence of different molar ratios (Aβ:TS) of two tanshinone compounds were monitored by ThT fluorescence assay and AFM (Atomic force microscopy). 20 μM Aβ1-42 solution (with or without tanshinone) was incubated at 37° C. for 48 h. ThT fluorescence assay has been widely used to detect the formation of amyloid fibrils because the binding of thioflavin dyes to amyloid fibrils enables to reduce self-quenching by restricting the rotation of the benzothiozole and benzaminic rings, leading to a significant increase in fluorescence quantum yield. […] After 24 hour reaction, a strong ThT emission was observed and remained almost unchanged within statistic errors between 24 and 48 hour incubation.
A homogeneous solution of Aβ monomers was required for inhibition tests. The purified Aβ1-42 powder was aliquoted in DMSO for 1 min and sonicated for 30 sec. The initiation of 20 μM Aβ1-42 [containing 1% (v/v) DMSO] aggregation in solution was accomplished by adding an aliquot of the concentrated DMSO-Aβ1-42 solution to 10 mM PBS buffer, followed by immediate vortexing to mix thoroughly. Aβ1-42 solution was then centrifuged with 14,000 rpm for 30 min at 4° C. to remove any existing oligomers, which 75% of the top solution was removed for further incubation or inhibition experiments. The pure Aβ1-42 solution was incubated at 37° C. as control. For Aβ inhibition experiments, 40 mM tanshinone (in DMSO) stock solution was dissolved in freshly prepared Aβ1-42 monomer solution to a final concentration of 20 μM and 40 μM (with Aβ:tanshinone molar ratio of 1:1 and 1:2), respectively. The mixed Aβ-tanshinone samples were incubated at 37° C.
(§2) Aβ1-42 fibrillization and Aβ1-42 fibril disruption in the presence and absence of tanshinones were monitored by ThT fluorescence assay. 2 mM ThT store solution was prepared by adding 0.0328 g ThT powder into 50 mL DI water. 250 μL of the 2 mM ThT solution was further diluted into 50 mL Tris-buffer (pH=7.4) to reach a final concentration of 10 μM. 60 μL of 20 μM Aβ with or without tanshinone was put into 3 mL of 10 μM ThT-Tris solution. Fluorescence spectra were obtained using a LS-55 fluorescence spectrometer (Perkin Elmer Corp., Waltham, Mass.). All measurements were carried out in aqueous solution using a 1 cm×1 cm quartz cuvette. ThT fluorescence emission intensity of each sample was recorded between 460 and 510 nm with an excitation wavelength of 450 nm. Fluorescence intensity from solution without Aβ1-42 was subtracted from solution containing Aβ1-42. Each experiment was repeated in 3 independent samples and each sample was tested quadrupled.

Aβ1-42 fibrils = biological target: T2, Aβ1-42 fibrils (Homo sapiens, UniProt P05067); experiment: Disruption assay of preformed Aβ fibrils (ThT fluorescence); format: biochemical; settings: 20 μM Aβ fibrils, 37° C.; for decrease in ThT fluorescence of preformed Aβ fibrils vs untreated Aβ control: Aβ:TS=1:1, 48 hour co-incubation; for ThT intensity of preformed Aβ fibrils decreased by: Aβ:TS=1:2, 48 hour co-incubation
T2 construct: Aβ1-42 peptide (≧95.5%) was all purchased from American Peptide Inc; purchased American Peptide Inc. (Sunnyvale, Calif.)
T2 sequence (P05067 672-713 limits assumed): as above
Description: The alternative potential therapeutic strategy to treat AD (Alzheimer's Disease) is to reduce the amount of the existing amyloid plaques. A very few molecules have been reported to disaggregate Aβ amyloid. […] To determine the ability of Aβ fibril dissolution by tanshinone in vitro, we set up experiments in which tanshinone was incubated with preformed fibrils. 20 μM Aβ fibrils were first prepared by incubating Aβ monomers in solution for 48 hour, which is sufficient long enough for Aβ to grow into mature fibrils as evidenced through AFM images and ThT fluorescence (FIG. 2). Upon 48 hour incubation, Aβ fibril solution was then co-incubated with TS1 or TS2 with different molar ratios of Aβ:TS (1:1, 1:2, and 1:5) for another 48 hour at 37° C.
Aβ1-42 fibrils were prepared by incubating 20 μM Aβ1-42 monomers for 48 h, which is sufficient long enough to enable Aβ peptides to grow into mature fibrils at a saturate state. The fibril solution was then divided into aliquots for the disruption tests. […] All the disruption samples were incubated at 37° C.
as §2

Aβ1-42 [2] = biological target: T1, Aβ1-42; experiment: AFM morphology of Aβ1-42 incubated with tanshinones; settings: Aβ:TS=1:1, within the first 4 hours
Description: as §1
The morphology change of Aβ fibrillization and disruption in the presence and absence of tanshinones was characterized by AFM. A 25 μL sample used in the Aβ1-42 ThT fluorescence assay was taken for AFM measurement at different time points to correlate Aβ morphology change with Aβ grow kinetics. […]

SH-SY5Y cells [3] = experiment: Live/dead cell assay, protection from Aβ-induced toxicity; format: cell-based, Human; settings: for protect cultured-cells from Aβ-induced toxicity by: co-incubation of Aβ with a very small amount of TSs; for percentage of dead cells (normalized to Aβ alone = 100%): tanshinone 4 μM + Aβ 20 μM (1:0.2), 24 hour, SH-SY5Y
Text: (§3) In order to determine whether tanshinone compounds are able to protect neuronal cells from toxic Aβ species, we conducted cell viability experiments to compare the toxic effects of Aβ, TS1, TS2, Aβ-TS1, and Aβ-TS2 on the SH-SY5Y cells using the SH-SY5Y live/dead assay, which is widely used in studies of Aβ toxicity. Opti-MEM reduced serum medium was used to minimize the noise of fluorescence. We then set the cell death data obtained from Aβ-cell control experiment as a basis of 100% to normalize other data for comparison. […] When treated the cells with 8 μM TS1 or TS2 alone (Aβ:TS=1:0.4), cell death was 25.3% and 20.5% (FIG. 5), respectively. Considering the physiological concentration of Aβ is as low as 10^-9 M, 8 μM tanshinone may exceed a lethal dose to induce cell death. We thus reduced the concentation of TS1 or TS2 to a clinical trial level of 4 μM for cell viability tests. […] We then performed Aβ-tanshione cell toxicity experiments using a 1:0.2 mixture of tanshinones (4 μM) and Aβ (20 μM). […] TS1 appears to be less toxic than TS2 by 13.8%.
(§4) All chemicals for cell culture were purchased from Life Technologies unless otherwise stated. Human neuroblastoma SH-SY5Y cell (ATCC, Manassas, Va., USA) was used as model neuron and cultured in 75 cm^2 T-flasks (Corning) in sterile-filtered Eagles Minimum Essential Medium and Ham's F-12 medium mixed at a 1:1 ratio containing 10% fetal bovine serum (EMEM, ATCC, Manassas, Va., USA), and 1% penicillin/streptomycin in 37° C., humidified air with 5% CO2. Cells were cultured to confluence, and harvested using 0.25 mg/ml Trypsin/EDTA solution (Lonza). Before adding Aβ and tanshinone, cells were re-suspended in Opti-MEM reduced serum medium and counted using a hemacytometer. Cells were then plated in a 24-well tissue culture plate with approximately 150,000 cells per well in 500 μl of Opti-MEM reduced serum medium, and allowed to attach for 24 hours inside the incubator.
Aβ oligomers were prepared by incubating a 1 mM Aβ-PBS solution at 37° C. for 24 h. Aβ oligomers with a molar ratio of Aβ:tanshinone of 1:0.2 were added to each well to reach a final concentration of 20 μM. The cells were then left for 24 hours before cell toxicity tests. A live/dead cytotoxicity assay, which determines live and dead cells with two probes by measuring intracellular esterase activity and plasma membrane integrity, was used to obtain cell viability/toxicity data. Cells were stained by adding 2 μM of Calcein AM (Life Technologies) to distinguish the presence of live cells with a fluorescence excitation/emission of 494/517 nm, while by adding 5 μM of Ethidium homodimer-1 (Life Technologies) to distinguish the presence of dead cells with a fluorescence excitation/emission of 528/617 nm. […] A Zeiss Axiovert 40 CFL inverted microscope fitted with filters at 510 nm and 600 nm was used to obtain fluorescence images of the live and dead cells. Fluorescence readings at 494/517 nm and 528/617 nm were detected using a Synergry H1 microplate reader (BioTek, Winooski, Vt.). […] Fi corresponds to the dead/live fluorescence signal of cells (blank control), cells co-incubate with TS1, cells co-incubate with TS2, cells co-incubate with Aβ and TS1, cells co-incubate with Aβ and TS2, and cells co-incubate with Aβ, respectively. FAβ represents the dead/live fluorescence signal of cells co-incubate with Aβ. The fluorescence signals of blank dyes were calibrated first and then subtracted from the fluorescence signals of medium solution.

SH-SY5Y cells [4] = experiment: Live/dead cell toxicity assay, tanshinone alone; format: cell-based
Text: as §3, §4
Aβ oligomers were prepared by incubating a 1 mM Aβ-PBS solution at 37° C. for 24 h. Aβ oligomers with a molar ratio of Aβ:tanshinone of 1:0.2 were added to each well to reach a final concentration of 20 μM. The cells were then left for 24 hours before cell toxicity tests. A live/dead cytotoxicity assay, which determines live and dead cells with two probes by measuring intracellular esterase activity and plasma membrane integrity, was used to obtain cell viability/toxicity data. Cells were stained by adding 2 μM of Calcein AM (Life Technologies) to distinguish the presence of live cells with a fluorescence excitation/emission of 494/517 nm, while by adding 5 μM of Ethidium homodimer-1 (Life Technologies) to distinguish the presence of dead cells with a fluorescence excitation/emission of 528/617 nm. The cells were incubated for 15 minutes with the live/dead assay contents to activate the fluorescent dyes. A Zeiss Axiovert 40 CFL inverted microscope fitted with filters at 510 nm and 600 nm was used to obtain fluorescence images of the live and dead cells. Fluorescence readings at 494/517 nm and 528/617 nm were detected using a Synergry H1 microplate reader (BioTek, Winooski, Vt.). Cell death in each incubation condition was normalized using the equation of ΔF=(Fi/FAβ)*100%, where ΔF is the percentage of cell death in different incubation conditions compared with the death of cells co-incubate with Aβ. Fi corresponds to the dead/live fluorescence signal of cells (blank control), cells co-incubate with TS1, cells co-incubate with TS2, cells co-incubate with Aβ and TS1, cells co-incubate with Aβ and TS2, and cells co-incubate with Aβ, respectively. FAβ represents the dead/live fluorescence signal of cells co-incubate with Aβ. The fluorescence signals of blank dyes were calibrated first and then subtracted from the fluorescence signals of medium solution.

Cc1coc2c1C(=O)C(=O)c1c-2ccc2c(C)cccc12 [TS1, tanshinone I]
ThT intensity relative to Aβ samples without inhibitors decreased by (Aβ1-42 [1]; Aβ:TS=1:1, 24 hour): 78.2%
ThT intensity relative to Aβ samples without inhibitors decreased by (Aβ1-42 [1]; Aβ:TS=1:1, 48 hour): 65.8%
final ThT fluorescence intensity reduced by (Aβ1-42 [1]): 88.5%
decrease in ThT fluorescence of preformed Aβ fibrils vs untreated Aβ control (Aβ1-42 fibrils): ~0.8%
ThT intensity of preformed Aβ fibrils decreased by (Aβ1-42 fibrils): ~30%
small spherical particles in AFM images (Aβ1-42 [2]): 1-3 nm
protect cultured-cells from Aβ-induced toxicity by (SH-SY5Y cells [3]): ~57.5%
less toxic than TS2 by (difference in dead cells) (SH-SY5Y cells [3]; tanshinone 4 μM + Aβ 20 μM): 13.8%
percentage of dead cells (normalized to Aβ alone = 100%) (SH-SY5Y cells [3]): ~57.5%
cell death (normalized to Aβ-treated cells = 100%) (SH-SY5Y cells [4]; 4 μM TS alone, 24 hour, SH-SY5Y): 9.3%
cell death (normalized to Aβ-treated cells = 100%) (SH-SY5Y cells [4]; 8 μM TS alone, 24 hour, SH-SY5Y): 25.3%
signs of cell death by fluorescence microscopy (SH-SY5Y cells [4]; pure TS, 4 μM level, SH-SY5Y): no observable signs of cell death

Cc1coc2c1C(=O)C(=O)c1c-2ccc2c1CCCC2(C)C [TS2, tanshinone IIA]
ThT intensity relative to Aβ samples without inhibitors decreased by (Aβ1-42 [1]; Aβ:TS=1:1, 24 hour): 44.8%
ThT intensity relative to Aβ samples without inhibitors decreased by (Aβ1-42 [1]; Aβ:TS=1:1, 48 hour): 34.6%
final ThT fluorescence intensity reduced by (Aβ1-42 [1]): 83.4%
decrease in ThT fluorescence of preformed Aβ fibrils vs untreated Aβ control (Aβ1-42 fibrils): ~0.8%
ThT intensity of preformed Aβ fibrils decreased by (Aβ1-42 fibrils): ~30%
small spherical particles in AFM images (Aβ1-42 [2]): 1-6 nm
protect cultured-cells from Aβ-induced toxicity by (SH-SY5Y cells [3]): ~71.3%
percentage of dead cells (normalized to Aβ alone = 100%) (SH-SY5Y cells [3]): ~71.3%
signs of cell death by fluorescence microscopy (SH-SY5Y cells [4]): no observable signs of cell death
cell death (normalized to Aβ-treated cells = 100%) (SH-SY5Y cells [4]; human, 24 h, 4 μM): 5.8%
cell death (normalized to Aβ-treated cells = 100%) (SH-SY5Y cells [4]; human, 24 h, 8 μM): 20.5%
